This is an account of results in US6346549B1, “Treatment of pharmacology of drug misuse and other addictive disorders” (Knoll Pharmaceutical Company, priority 1999, dated 2002).

SMILES strings stand for the structures.

For assay [1], the target named is T1, [3H]Noradenaline reuptake in rat brain tissue (Rattus norvegicus).
T1 construct: in rat brain tissue; from tissue; host or cells: rat brain tissue
Nature of the assay: in vitro [3H]noradrenaline reuptake inhibition in rat brain tissue. Type of assay: biochemical. The following applies: monoamine reuptake inhibition, means of ≧3 separate determinations.

Assay [2] deals with [3H]Dopamine reuptake in rat brain tissue (Rattus norvegicus, UniProt P23977). Nature of the assay: biochemical.
[3H]Dopamine reuptake in rat brain tissue, sequence (P23977 whole entry): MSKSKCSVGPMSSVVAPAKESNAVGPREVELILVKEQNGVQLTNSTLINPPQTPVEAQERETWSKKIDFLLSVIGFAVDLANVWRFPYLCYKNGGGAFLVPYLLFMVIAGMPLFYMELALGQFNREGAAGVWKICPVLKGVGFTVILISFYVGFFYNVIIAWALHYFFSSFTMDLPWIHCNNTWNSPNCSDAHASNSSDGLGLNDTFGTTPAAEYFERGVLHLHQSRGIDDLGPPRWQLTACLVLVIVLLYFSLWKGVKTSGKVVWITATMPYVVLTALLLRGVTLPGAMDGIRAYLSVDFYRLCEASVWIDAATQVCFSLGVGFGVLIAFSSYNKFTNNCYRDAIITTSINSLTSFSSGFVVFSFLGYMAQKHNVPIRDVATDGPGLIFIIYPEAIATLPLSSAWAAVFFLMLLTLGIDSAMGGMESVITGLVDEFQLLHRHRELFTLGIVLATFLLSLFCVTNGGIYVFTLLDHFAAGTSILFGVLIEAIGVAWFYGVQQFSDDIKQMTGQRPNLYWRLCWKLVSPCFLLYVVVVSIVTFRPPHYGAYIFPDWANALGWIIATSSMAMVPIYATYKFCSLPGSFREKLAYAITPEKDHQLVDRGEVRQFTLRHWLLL

T1 sequence (Q63380 1-617): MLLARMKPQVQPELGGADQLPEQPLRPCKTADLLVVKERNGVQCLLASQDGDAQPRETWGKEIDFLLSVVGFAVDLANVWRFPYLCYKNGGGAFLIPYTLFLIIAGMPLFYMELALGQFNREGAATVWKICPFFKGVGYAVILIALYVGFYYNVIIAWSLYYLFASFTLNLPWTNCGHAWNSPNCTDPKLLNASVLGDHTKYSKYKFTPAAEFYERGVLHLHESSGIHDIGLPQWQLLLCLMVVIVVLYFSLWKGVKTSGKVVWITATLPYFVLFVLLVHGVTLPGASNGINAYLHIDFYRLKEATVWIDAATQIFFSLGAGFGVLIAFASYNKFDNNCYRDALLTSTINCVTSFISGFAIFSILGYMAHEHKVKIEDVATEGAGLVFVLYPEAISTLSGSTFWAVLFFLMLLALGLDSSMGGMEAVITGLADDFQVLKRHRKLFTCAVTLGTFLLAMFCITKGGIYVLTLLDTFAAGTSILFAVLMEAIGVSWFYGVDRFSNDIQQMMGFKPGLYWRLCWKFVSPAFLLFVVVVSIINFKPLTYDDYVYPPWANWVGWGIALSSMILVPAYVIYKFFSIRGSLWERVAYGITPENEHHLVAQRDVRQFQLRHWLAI

With `CC(NC(C)(C)C)C(=O)c1cccc(Cl)c1` (centres unmarked) [Bupropion], the figures for the Ki in assay [1] and in assay [2] were 2590 nM and 409 nM, respectively.
